“And” between values parts separate entries of the source, which are not always exact repeats. Identical values can stand only once.
What was measured:
[1] = system: L. mexicana NT3-KO promastigotes; test: Radiolabel transport assay in NT3-KO cells; format: cell-based, Leishmania mexicana; settings: for rate of uptake: NT3-KO cells; for upregulation of uptake rate in NT3-KO relative to cas9: adenosine and inosine at 100 nM, separate experiments listed singly
Method: (§1) Transport assays were performed exactly as described previously. Briefly, 10^7 cells in 100 μL of assay buffer (AB) were mixed with an equal volume of radiolabel at 2× concentration for a preset time. The incubation was terminated by the addition of 700 μL of “Stop solution”, being ice-cold 1 mM solution of unlabelled permeant, followed by immediate centrifugation through an oil layer in a microfuge at 13,000 rpm. This causes the cell pellet to reside under the oil layer and isolated from residual radiolabel in the assay buffer. The tubes were flash-frozen in liquid nitrogen and the bottom tip, containing the cell pellet, cut off and collected in a scintillation tube. Cells were solubilized by gentle shaking after addition of a 2% SDS solution, before the addition of scintillation fluid (Scintilogic U, Lablogic, Sheffield, UK); the tubes were left to stand in the dark overnight before counting in a 300SL Hidex Scintillation Counter (Lablogic). Linear and nonlinear regression analyses were carried out using GraphPad Prism versions 8.0 and higher. […] However, all parameters, including Km, Vmax, Ki, given are the average of at least three separate, independent determinations; errors given are standard errors, unless otherwise specified.

[2] = system: L. mexicana cas9 cells; test: Radiolabel transport assay in cas9 cells; format: cell-based, Leishmania mexicana; settings: cas9 cells
Method: as §1

[3] = target: T1, TcrNB2 (Trypanosoma cruzi, UniProt Q4DHG0); test: Transport assay, TcrNB2 expressed in LmexNT3-KO; format: cell-based
T1 sequence (Q4DHG0 1-440): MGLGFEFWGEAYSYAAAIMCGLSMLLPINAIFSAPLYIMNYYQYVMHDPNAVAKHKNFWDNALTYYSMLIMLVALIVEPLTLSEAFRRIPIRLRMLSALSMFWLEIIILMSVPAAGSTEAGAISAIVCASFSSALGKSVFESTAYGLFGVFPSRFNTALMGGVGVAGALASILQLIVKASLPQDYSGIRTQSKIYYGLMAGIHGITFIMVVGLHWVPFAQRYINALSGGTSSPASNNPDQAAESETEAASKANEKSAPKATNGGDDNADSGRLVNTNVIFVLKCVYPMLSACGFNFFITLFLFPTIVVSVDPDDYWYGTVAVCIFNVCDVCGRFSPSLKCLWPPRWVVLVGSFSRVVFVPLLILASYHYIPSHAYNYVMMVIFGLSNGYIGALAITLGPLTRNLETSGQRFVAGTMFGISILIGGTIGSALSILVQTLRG
Method: as §1

[4] = system: L. mexicana cas9 cells; test: Growth curve of cas9 cells with selection agents; format: cell-based, Leishmania mexicana; settings: 5 μM tubercidin, 5 μg/mL blasticidin, 20 µg/mL puromycin, 1 µM formycin B
Method: The growth rates of the L. mexicana promastigotes were determined in the standard HOMEM medium supplemented with 10% FBS, in 12-well plates, in triplicate. After every 24 h, cells were counted in a sample of the culture, using either a Neubauer hemocytometer chamber (Hawksley, Birmingham, UK) or by a coulter particle counter and size analyzer (Beckman, Brea, CA, USA) to count the cells in triplicate. An average of the triplicate readings was taken and plotted using GraphPad Prism 8 software to obtain the growth curves.

[5] = target: TvagENT3 (Trichomonas vaginalis, UniProt A2E5Q3); test: cell-based; settings: SUPKO expressing TvagENT3, 500 nM radiolabel
Sequence of TvagENT3 (A2E5Q3 entry or part of it): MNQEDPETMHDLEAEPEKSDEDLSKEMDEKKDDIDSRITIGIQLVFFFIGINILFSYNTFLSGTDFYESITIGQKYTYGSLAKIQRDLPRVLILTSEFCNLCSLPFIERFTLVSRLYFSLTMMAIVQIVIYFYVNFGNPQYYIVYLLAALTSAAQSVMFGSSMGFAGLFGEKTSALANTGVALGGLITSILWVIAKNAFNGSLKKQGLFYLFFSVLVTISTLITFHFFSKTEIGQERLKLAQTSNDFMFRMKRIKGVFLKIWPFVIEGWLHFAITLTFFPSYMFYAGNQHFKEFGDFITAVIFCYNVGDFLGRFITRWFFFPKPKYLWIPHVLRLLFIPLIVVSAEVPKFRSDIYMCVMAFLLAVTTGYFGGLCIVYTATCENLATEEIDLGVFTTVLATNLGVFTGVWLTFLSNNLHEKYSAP
Method: as §1

[6] = system: L. mexicana SUPKO (ΔNT1.1/1.2/2) cells; test: Radiolabel transport assay in SUPKO cells; format: cell-based, Leishmania mexicana; settings: for rate of uptake: SUPKO cells; for uptake reduced in SUPKO compared to cas9: 100 nM (0.1 µM) radiolabel
Method: as §1

[7] = system: L. mexicana NT2-KO cells; test: Radiolabel transport assay in NT2-KO cells; format: cell-based, Leishmania mexicana; settings: for inhibition of residual [^3H]-guanosine uptake in NT2-KO: 250 µM inhibitor, 100 nM [^3H]-guanosine
Method: as §1

[8] = target: T1, TcrNB2; test: Transport assay, TcrNB2 expressed in NT1-KO; format: cell-based; settings: 50 nM [^3H]-adenosine, 100 nM [^3H]-hypoxanthine, 100 nM [^3H]-uracil; data not shown
Method: as §1

[9] = system: L. mexicana NT1-KO promastigotes; test: Resazurin (Alamar blue) drug sensitivity assay, NT1-KO line; format: cell-based, Leishmania mexicana
Method: The assay is based on the reduction of the dye resazurin (Alamar blue) by live but not dead cells and was performed with various strains of Leishmania mexicana promastigotes, exactly as described. Briefly, doubling dilutions starting at 100 µM were set up over 2 rows of a 96-well plate and 2 × 10^5 cells were added to each well, followed by incubation at 25 °C. After 72 h, 20 µL of 125 µg/mL resazurin solution was added and the plates incubated for a further 24 h. Fluorescence was determined in a FLUOstar OPTIMA plate reader (BMG Labtech, Ortenberg, Germany), reading the fluorescence intensity in arbitrary units (A.U.) at 544 nm wavelength for excitation and 620 nm wavelength for emission. The EC50 values and fluorescence data were determined and plotted to a sigmoid curve with variable slope, using the GraphPad Prism 8 software package. All EC50 values were determined on at least three independent occasions and are presented as average ± SEM.

[10] = substrate: Nc1ncnc2nc[nH]c12; test: Transport assay, TcrNB2 expressed in LmexNT3-KO; format: cell-based, Trypanosoma cruzi
Method: as §1

[11] = 100 nM radiolabel, listed as [^3H]-guanosine

For `Nc1ncnc2[nH]cnc12` [adenine], the “rate of transport in NT3-KO as % of that in cas9” value ([1]; 100 nM radiolabel) was less than 1%, the “uptake in NT3-KO lower than in cas9” value ([1]; 100 nM radiolabel, over 15 s) was greater than 100 fold and the rate of uptake ([1]; 100 nM radiolabel) was 0.000207 ± 0.000094 pmol(10^7 cells)^−1s^−1. The rate of uptake ([2]; 100 nM radiolabel) was 0.0213 ± 0.0009 pmol(10^7 cells)^−1s^−1, the rate of uptake ([3]; NT3-KO expressing TcrNB2, 100 nM radiolabel) was 0.00036 ± 0.00001 pmol(10^7 cells)^−1s^−1 and the Vmax ([3]; TcrNB2 in NT3-KO, n = 3) was 0.26 ± 0.04 pmol(10^7 cells)^−1s^−1.

`CN(CC[C@H](N)CC(=O)N[C@H]1C=C[C@H](n2ccc(N)nc2=O)O[C@@H]1C(=O)O)C(=N)N` [blasticidin] was tested, and the “sensitivity of cas9 cells in growth curve” value (“sensitivity of cas9 cells” below) [4] was “confirmed”.

For `Nc1ccn([C@@H]2O[C@H](CO)[C@@H](O)[C@H]2O)c(=O)n1` [cytidine], the “upregulation of uptake rate in NT3-KO relative to cas9” value ([1]; listed as [^3H]-cytidine) was 3.0 fold and 3.7 fold, the rate of uptake [5] was 1.8 × 10^−4 ± 1.3 × 10^−5 pmol(10^7 cells)^−1s^−1 and the rate of uptake ([6]; 500 nM radiolabel) was 1.5 × 10^−5 ± 9 × 10^−6 pmol(10^7 cells)^−1s^−1.

In the case of `Nc1nc2c(ncn2[C@@H]2O[C@H](CO)[C@@H](O)[C@H]2O)c(=O)[nH]1` [guanosine], the “rate of uptake lower in NT2-KO than in cas9” value ([7]; 100 nM radiolabel) is reported as 84.5%, the “inhibition of residual [^3H]-guanosine uptake in NT2-KO” value [7] is reported as “completely inhibited” and the rate of uptake ([7]; NT2-KO cells, 100 nM radiolabel) is reported as 0.0009 ± 0.00014 pmol(10^7 cells)^−1s^−1. The “upregulation of uptake rate in NT3-KO relative to cas9” value [1] was 1.7 fold and 2.1 fold, the rate of uptake [2, 11] was 0.010 ± 0.0006 pmol(10^7 cells)^−1s^−1 and 0.0058 ± 0.0003 pmol(10^7 cells)^−1s^−1 and the “uptake reduced in SUPKO compared to cas9” value [6] was 95.5%. For the same molecule, the rate of uptake [6, 11] was 0.00046 ± 0.00011 pmol(10^7 cells)^−1s^−1.

`O=c1[nH]cnc2nc[nH]c12` [hypoxanthine] was tested, and the “inhibition of residual [^3H]-guanosine uptake in NT2-KO” value [7] was “completely inhibited”, the “uptake detected in NT3-KO cells” value ([1]; 100 nM radiolabel, p = 0.72) was “no significant hypoxanthine uptake was detected” and the rate of uptake ([1]; 100 nM radiolabel) was 0.00019 ± 0.00045 pmol(10^7 cells)^−1s^−1. The inhibition at 1000 µM ([3]; 1 mM inhibitor, TcrNB2 in NT3-KO, read-out: inhibition of adenine uptake) was 31.1 ± 4.3%, the “effect of TcrNB2 expression on uptake in NT1-KO cells” value [8] was “did not increase” and the rate of uptake ([6]; 100 nM radiolabel) was 0.045 ± 0.004 pmol(10^7 cells)^−1s^−1.

With `N=C(N)c1ccc(OCCCCCOc2ccc(C(=N)N)cc2)cc1` [pentamidine] the “EC50 (internal control)” value ([9]; NT1-KO compared with cas9) was “unchanged”.

In the case of `COc1ccc(C[C@H](N)C(=O)N[C@H]2[C@@H](O)[C@H](n3cnc4c(N(C)C)ncnc43)O[C@@H]2CO)cc1` [puromycin], the “sensitivity of cas9 cells” value [4] is reported as “confirmed”.

`Cc1cn([C@H]2C[C@H](O)[C@@H](CO)O2)c(=O)[nH]c1=O` [thymidine] was tested, and the “upregulation of uptake rate in NT3-KO relative to cas9” value [1] was 3.45 fold, the rate of uptake ([2]; 50 nM radiolabel) was 0.0018 ± 0.0001 pmol(10^7 cells)^−1s^−1 and the “uptake reduced in SUPKO compared to cas9” value [6] was 95.7 ± 1.8%. The rate of uptake ([6]; 50 nM radiolabel) was 8.7 × 10^−5 ± 1.2 × 10^−5 pmol(10^7 cells)^−1s^−1.

With `Nc1ncnc2c1ccn2[C@@H]1O[C@H](CO)[C@@H](O)[C@H]1O` [tubercidin] the “sensitivity of cas9 cells” value [4] was “confirmed” and the “shift in tubercidin sensitivity” value ([9]; NT1-KO vs cas9, resazurin assay) was 60 fold.

B1: TcrNB2 (Trypanosoma cruzi strain CL Brener) (protein)
chain: MGLGFEFWGEAYSYAAAIMCGLSMLLPINAIFSAPLYIMNYYQYVMHDPNAVAKHKNFWDNALTYYSMLIMLVALIVEPLTLSEAFRRIPIRLRMLSALSMFWLEIIILMSVPAAGSTEAGAISAIVCASFSSALGKSVFESTAYGLFGVFPSRFNTALMGGVGVAGALASILQLIVKASLPQDYSGIRTQSKIYYGLMAGIHGITFIMVVGLHWVPFAQRYINALSGGTSSPASNNPDQAAESETEAASKANEKSAPKATNGGDDNADSGRLVNTNVIFVLKCVYPMLSACGFNFFITLFLFPTIVVSVDPDDYWYGTVAVCIFNVCDVCGRFSPSLKCLWPPRWVVLVGSFSRVVFVPLLILASYHYIPSHAYNYVMMVIFGLSNGYIGALAITLGPLTRNLETSGQRFVAGTMFGISILIGGTIGSALSILVQTLRG
Work on B1 yielded a Km ([10]; other: TcrNB2 in NT3-KO, 100 nM [^3H]-adenine, n = 3) of 14.2 ± 2.6 µM and a Km ([10]; other: one of three independent repeats, incubation time 120 s) of 14.99 µM.

— PMC9331716, “Nucleoside Transport and Nucleobase Uptake Null Mutants in Leishmania mexicana for the Routine Expression and Characterization of Purine and Pyrimidine Transporters” (International Journal of Molecular Sciences, 2022)
